Key:
[1] = target: human Nav1.5 (Homo sapiens (Human), UniProt Q14524); assay: Human Nav1.5 inhibitory activity evaluation (automated patch clamp QPatch16X, HEK293 cells stably expressing human Nav1.5); type: cell-based
Procedure: Test Example 2: Human Nav1.5 Inhibitory Activity Evaluation
A cell line in which human Nav1.5 was stably expressed in HEK293 cells was used. DMEM supplemeted with 15% fetal bovine serum, 500 μg/ml geneticin, 100 units/ml penicillin, 100 μg/ml streptomycin, 20 mM HEPES was used as culture medium under the conditions of 37° C. and 5% CO2 in T175 flasks to carry out culturing. When 60-80% confluence was reached, a cell suspension of about 0.5-5.0×10^6 cells/mL was prepared. The amount of current through human Nav1.5 was recorded using a fully automatic patch clamp device QPatch16X at room temperature. As the extracellular solution, 145 mM NaCl, 4 mM KCl, 1 mM MgCl2, 2 mM CaCl2, 10 mM Glucose, and 10 mM HEPES at pH 7.4 was used. As the intracellular solution, 135 mM CsF, ⅕ mM EGTA/CsOH, 10 mM HEPES, and 10 mM NaCl at pH 7.3 was used. The test compounds were dissolved in DMSO and diluted with the extracellular solution to attend the DMSO concentration of 0.1% at the time of assay.
The current response was obtained at a sampling frequency of 25 kHz, and noise was removed with a 3 kHz low-pass filter. The holding potential was −80 mV. Correction of the leakage current was carried out by applying a step pulse of −100 mV before the test pulse. In order to investigate human Nav1.5 inhibitory effect of the test compound, test pulses imitating the action potential of cardiomyocytes were continuously given 20 times. The test pulses were given before and after the test compound addition.
The inhibitory activity of the test compound was determined based on the amount of inward current generated by the 20th depolarization pulse, and the 50% inhibitory concentration (IC50) was calculated from the concentration-response curve.

[2] = target: human Nav1.7 (Homo sapiens (Human), UniProt Q15858); assay: Human Nav1.7 inhibitory activity evaluation (automated patch clamp QPatch16X, HEK293A cells stably expressing human Nav1.7 and human Navβ1); type: cell-based
In short: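 IC50 calculated from the concentration-response of inward current evoked by the second −10 mV, 50 ms depolarisation, which follows a 15 s conditioning step at roughly 30-40% inactivation and a 100 ms −120 mV interval. Cells: HEK293A expressing human Nav1.7/Navβ1, automated patch clamp, room temperature, 0.1% DMSO final.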

[3] = HEK293 cells stably expressing human Nav1.5, automated patch clamp QPatch16X
[4] = HEK293A cells stably expressing human Nav1.7 and human Navβ1, automated patch clamp QPatch16X
[5] = human Nav1.5, automated patch clamp
[6] = human Nav1.7, automated patch clamp

Sequence of human Nav1.5 (Q14524 whole entry): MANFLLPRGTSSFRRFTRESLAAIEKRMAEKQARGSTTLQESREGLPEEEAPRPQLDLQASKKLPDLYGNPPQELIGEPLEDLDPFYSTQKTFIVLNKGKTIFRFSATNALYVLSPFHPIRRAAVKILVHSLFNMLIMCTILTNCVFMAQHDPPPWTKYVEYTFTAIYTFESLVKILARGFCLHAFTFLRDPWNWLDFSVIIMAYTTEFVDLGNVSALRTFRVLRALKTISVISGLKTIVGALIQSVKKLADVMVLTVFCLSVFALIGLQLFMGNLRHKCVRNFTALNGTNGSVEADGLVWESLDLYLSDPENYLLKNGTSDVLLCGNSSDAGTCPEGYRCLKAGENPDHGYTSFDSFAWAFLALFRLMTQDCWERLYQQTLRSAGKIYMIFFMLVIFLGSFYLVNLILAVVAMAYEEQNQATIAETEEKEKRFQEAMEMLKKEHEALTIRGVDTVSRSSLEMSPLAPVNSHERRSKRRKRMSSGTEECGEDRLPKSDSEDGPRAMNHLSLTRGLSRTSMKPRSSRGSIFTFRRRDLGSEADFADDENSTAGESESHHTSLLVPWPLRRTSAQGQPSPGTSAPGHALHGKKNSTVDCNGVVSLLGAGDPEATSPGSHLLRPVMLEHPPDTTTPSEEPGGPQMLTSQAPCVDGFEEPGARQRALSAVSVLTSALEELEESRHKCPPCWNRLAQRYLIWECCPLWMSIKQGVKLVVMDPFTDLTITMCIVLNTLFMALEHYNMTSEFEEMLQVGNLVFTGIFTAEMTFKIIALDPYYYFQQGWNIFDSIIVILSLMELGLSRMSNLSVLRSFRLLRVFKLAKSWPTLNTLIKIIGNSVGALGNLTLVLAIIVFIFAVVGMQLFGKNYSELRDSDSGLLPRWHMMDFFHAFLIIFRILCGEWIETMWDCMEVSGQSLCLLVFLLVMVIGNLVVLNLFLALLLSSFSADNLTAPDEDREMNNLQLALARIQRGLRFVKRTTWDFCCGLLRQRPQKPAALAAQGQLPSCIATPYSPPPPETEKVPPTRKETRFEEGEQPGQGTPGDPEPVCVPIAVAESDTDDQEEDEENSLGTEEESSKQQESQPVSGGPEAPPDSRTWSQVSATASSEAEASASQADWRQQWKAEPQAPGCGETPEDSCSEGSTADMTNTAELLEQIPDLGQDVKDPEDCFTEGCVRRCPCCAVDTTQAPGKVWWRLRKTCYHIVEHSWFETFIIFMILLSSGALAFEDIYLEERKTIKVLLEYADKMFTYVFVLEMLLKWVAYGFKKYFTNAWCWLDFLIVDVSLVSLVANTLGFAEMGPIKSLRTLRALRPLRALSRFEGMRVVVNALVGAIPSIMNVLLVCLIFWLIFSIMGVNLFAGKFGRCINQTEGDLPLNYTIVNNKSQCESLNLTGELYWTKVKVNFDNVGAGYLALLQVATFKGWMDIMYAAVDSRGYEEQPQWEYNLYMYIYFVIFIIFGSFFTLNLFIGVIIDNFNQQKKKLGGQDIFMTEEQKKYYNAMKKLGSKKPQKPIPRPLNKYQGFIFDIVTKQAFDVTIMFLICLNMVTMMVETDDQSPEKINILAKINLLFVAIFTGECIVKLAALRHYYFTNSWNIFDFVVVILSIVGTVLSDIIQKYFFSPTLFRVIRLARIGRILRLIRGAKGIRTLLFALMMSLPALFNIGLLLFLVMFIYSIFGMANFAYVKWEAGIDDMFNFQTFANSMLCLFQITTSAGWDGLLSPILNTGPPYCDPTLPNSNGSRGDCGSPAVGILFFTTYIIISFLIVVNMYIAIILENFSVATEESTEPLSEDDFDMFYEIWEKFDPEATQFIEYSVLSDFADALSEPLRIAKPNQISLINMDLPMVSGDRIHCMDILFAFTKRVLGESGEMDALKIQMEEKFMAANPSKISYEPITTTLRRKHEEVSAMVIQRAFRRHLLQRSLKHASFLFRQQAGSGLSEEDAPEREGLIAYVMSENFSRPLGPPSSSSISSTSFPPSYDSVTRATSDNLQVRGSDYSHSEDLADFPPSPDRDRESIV
Sequence of human Nav1.7 (Q15858 whole entry): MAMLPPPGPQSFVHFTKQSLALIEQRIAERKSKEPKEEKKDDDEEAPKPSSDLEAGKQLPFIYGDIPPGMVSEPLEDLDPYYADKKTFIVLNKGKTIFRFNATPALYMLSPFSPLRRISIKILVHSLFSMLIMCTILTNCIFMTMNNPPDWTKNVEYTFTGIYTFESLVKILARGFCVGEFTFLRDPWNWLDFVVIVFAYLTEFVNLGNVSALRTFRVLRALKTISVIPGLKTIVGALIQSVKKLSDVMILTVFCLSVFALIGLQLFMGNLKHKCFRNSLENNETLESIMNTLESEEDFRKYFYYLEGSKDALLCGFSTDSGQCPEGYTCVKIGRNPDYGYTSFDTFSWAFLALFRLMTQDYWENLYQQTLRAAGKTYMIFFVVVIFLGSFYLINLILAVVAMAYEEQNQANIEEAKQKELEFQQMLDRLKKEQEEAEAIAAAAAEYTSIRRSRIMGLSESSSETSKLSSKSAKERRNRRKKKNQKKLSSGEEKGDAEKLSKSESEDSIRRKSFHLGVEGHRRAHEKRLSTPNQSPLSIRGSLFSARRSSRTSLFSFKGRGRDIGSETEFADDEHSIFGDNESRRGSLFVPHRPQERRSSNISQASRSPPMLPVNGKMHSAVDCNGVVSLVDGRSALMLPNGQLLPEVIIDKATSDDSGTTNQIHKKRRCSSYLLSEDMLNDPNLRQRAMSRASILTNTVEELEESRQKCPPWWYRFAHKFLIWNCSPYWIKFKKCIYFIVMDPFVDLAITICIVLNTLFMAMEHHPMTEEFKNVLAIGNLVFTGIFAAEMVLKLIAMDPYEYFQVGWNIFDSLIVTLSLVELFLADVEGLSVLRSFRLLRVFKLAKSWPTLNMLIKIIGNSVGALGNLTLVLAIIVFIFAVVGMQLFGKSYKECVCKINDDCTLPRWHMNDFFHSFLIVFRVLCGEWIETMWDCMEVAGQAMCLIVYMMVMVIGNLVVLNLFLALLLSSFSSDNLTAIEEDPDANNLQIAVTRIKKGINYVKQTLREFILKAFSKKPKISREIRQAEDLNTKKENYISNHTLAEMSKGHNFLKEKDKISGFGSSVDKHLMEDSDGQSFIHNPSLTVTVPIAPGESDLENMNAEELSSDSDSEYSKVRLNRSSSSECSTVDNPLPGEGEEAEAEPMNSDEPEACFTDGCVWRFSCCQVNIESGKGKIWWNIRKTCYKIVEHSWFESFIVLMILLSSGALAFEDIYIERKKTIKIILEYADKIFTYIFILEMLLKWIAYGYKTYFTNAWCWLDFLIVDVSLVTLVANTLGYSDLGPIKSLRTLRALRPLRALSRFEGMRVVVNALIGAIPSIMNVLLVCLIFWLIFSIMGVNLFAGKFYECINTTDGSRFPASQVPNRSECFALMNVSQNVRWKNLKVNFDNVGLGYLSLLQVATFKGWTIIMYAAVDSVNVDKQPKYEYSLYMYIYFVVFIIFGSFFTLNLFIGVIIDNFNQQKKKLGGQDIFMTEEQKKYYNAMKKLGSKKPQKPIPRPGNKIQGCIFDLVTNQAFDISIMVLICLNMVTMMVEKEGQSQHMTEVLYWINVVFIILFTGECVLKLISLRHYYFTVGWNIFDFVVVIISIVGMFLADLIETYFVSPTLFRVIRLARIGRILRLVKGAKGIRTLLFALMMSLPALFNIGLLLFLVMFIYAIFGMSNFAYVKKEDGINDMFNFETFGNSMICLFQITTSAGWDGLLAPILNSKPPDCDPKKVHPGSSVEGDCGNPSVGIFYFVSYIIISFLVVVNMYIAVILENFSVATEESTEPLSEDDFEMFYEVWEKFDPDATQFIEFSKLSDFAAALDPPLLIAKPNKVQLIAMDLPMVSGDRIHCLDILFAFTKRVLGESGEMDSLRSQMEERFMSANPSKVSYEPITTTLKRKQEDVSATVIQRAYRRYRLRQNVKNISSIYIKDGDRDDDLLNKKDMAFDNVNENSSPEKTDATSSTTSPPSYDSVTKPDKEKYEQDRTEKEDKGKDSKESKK
Sequence of human Nav1.7 (Q07699 19-218 partner): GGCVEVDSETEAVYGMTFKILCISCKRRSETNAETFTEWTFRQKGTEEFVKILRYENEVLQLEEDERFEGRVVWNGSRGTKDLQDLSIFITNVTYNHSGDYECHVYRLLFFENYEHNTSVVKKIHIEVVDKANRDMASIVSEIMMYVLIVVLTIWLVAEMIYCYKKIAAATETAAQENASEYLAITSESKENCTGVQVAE

| Structure (SMILES) | IC50 [1, 3] [nM] | IC50 [2, 4] [nM] | IC50 [1, 5] [nM] | IC50 [2, 6] [nM] |
| --- | --- | --- | --- | --- |
| CCCOCC1CCn2nc(C(=O)N[C@H]3COc4ccc(C#N)cc4C3)cc2O1 (stereo partly drawn) [Example 100, N—((R)-6-cyanochroman-3-yl)-5-(propoxymethyl)-6,7-dihydro-5H-pyrazolo[5,1-b][1,3]oxazine-2-carboxamide] | ≥ 3000 | < 10000 |  |  |
| N#Cc1ccc2c(c1)C[C@@H](NC(=O)c1cc3n(n1)CCC(COCC1(F)CC1)O3)CO2 (single isomer, unassigned) [552 (isomer A)] |  |  | ≥ 3000 | < 10000 |
| CCC(O)(CC)C1CCn2nc(C(=O)N[C@H]3COc4ccc(Cl)cc4C3)cc2O1 (some centres unmarked) [Example 168] |  |  | ≥ 3000 | < 10000 |
| O=C(N[C@H]1COc2ccccc2C1)c1cc2n(n1)CCN(CC1CC(F)(F)C1)C2 [Example 488] |  |  | ≥ 3000 | < 10000 |
| Cn1cc(-c2ccc3c(c2)C[C@@H](NC(=O)c2cc4n(n2)CC(CCOC(F)F)O4)CO3)cn1 (some centres unmarked) [Example 220] |  |  | 1000 to 3000 | < 10000 |
| O=C(N[C@H]1COc2ccc(Cl)cc2C1)c1nc2n(c1-c1ccccn1)CCOC2 [Example 66] | < 1000 | < 10000 |  |  |
| Cc1ccc2c(c1)C[C@@H](NC(=O)c1cc3n(n1)CC(CCNCC(F)(F)F)O3)CO2 (single isomer, unassigned) [228 (isomer A)] |  |  | ≥ 3000 | < 1000 |
| O=C(N[C@H]1COc2ccc(C(F)(F)F)cc2C1O)c1cc2n(n1)CC(CCOCC(F)(F)F)O2 (single isomer, unassigned) [600 (isomer B)] |  |  | 1000 to 3000 | < 1000 |
| O=C(N[C@H]1COc2ccc(-c3cncs3)cc2C1)c1cc2n(n1)CCC(COCC1CC1)O2 (some centres unmarked) [Example 428] |  |  | ≥ 3000 | < 1000 |
| O=C(N[C@H]1COc2ccc(Cl)cc2C1)c1cc2n(n1)CCC(CNCC(F)(F)F)O2 (some centres unmarked) [Example 151] |  |  | 1000 to 3000 | < 1000 |
| O=C(N[C@H]1COc2ccc(-c3ccccn3)cc2C1)c1cc2n(n1)CCC(COCC1CC1)O2 (some centres unmarked) [Example 110] | ≥ 3000 | < 1000 |  |  |
| N#Cc1ccc2c(c1)C[C@@H](NC(=O)c1cc3n(n1)CCC(COCC1(F)CC1)O3)CO2 (mixture of isomers) [Example 532] |  |  | ≥ 3000 | < 10000 |
| CC(C)(C)OCCN1CCn2nc(C(=O)N[C@H]3COc4ccc(C(F)F)cc4C3)cc2C1 [Example 272] |  |  | ≥ 3000 | < 10000 |
| N#Cc1ccc2c(c1)C[C@@H](NC(=O)c1cc3n(n1)CCC(COc1ccccc1)O3)CO2 (some centres unmarked) [Example 118] | < 1000 | < 1000 |  |  |
| O=C(c1cn2c(n1)CCC(c1cccc(N3CCOCC3)n1)C2)N1CCC(c2ccccc2)C1 (centres unmarked) [Example 307] |  |  | 1000 to 3000 | < 10000 |
| N#Cc1ccc2c(c1)C[C@@H](NC(=O)c1cc3n(n1)CCN(CCC1CCC1)C3)CO2 [Example 496] |  |  | 1000 to 3000 | < 1000 |
| O=C(N[C@H]1COc2ccc(C(F)(F)F)cc2C1)c1nn2c(c1-c1ccccn1)CN(CC(F)(F)F)CC2 [Example 267] |  |  | < 1000 | < 10000 |
| O=C(N[C@H]1COc2ccc(COCC(F)(F)F)cc2C1)c1cc2n(n1)CCC(C(F)F)O2 (some centres unmarked) [Example 162] |  |  | ≥ 3000 | < 1000 |
| CN1Cc2nc(C(=O)NCCc3cccc(C(F)(F)F)c3)cn2CC1c1cccnc1C(F)(F)F (centres unmarked) [Example 326] |  |  | ≥ 3000 | < 10000 |
| O=C(N[C@H]1COc2ccc(Cl)cc2C1)c1cc2n(n1)CCC(C(F)F)O2 (single isomer, unassigned) [158 (isomer A)] |  |  | ≥ 3000 | < 1000 |
| O=C(N[C@H]1COc2ccc(Cl)cc2C1)c1cc2n(n1)CCC(c1ccnc(C(F)(F)F)c1)O2 (some centres unmarked) [Example 362] |  |  | ≥ 3000 | < 10000 |
| N#Cc1ccc2c(c1)C[C@@H](NC(=O)c1cc3n(n1)CCC(CSCC(F)(F)F)O3)CO2 (some centres unmarked) [Example 422] |  |  | ≥ 3000 | < 10000 |
| N#Cc1ccc2c(c1)C[C@@H](NC(=O)c1cc3n(n1)CCC(COc1ccccn1)O3)CO2 (some centres unmarked) [Example 411] |  |  | ≥ 3000 | < 1000 |
| N#CC1(COCC2CCn3nc(C(=O)N[C@H]4COc5ccc(Cl)cc5C4)cc3O2)CC1 (some centres unmarked) [Example 538] |  |  | ≥ 3000 | < 1000 |

| Structure (SMILES) | IC50 [1, 3] [nM] | IC50 [2, 4] [nM] | IC50 [1, 5] [nM] | IC50 [2, 6] [nM] |
| --- | --- | --- | --- | --- |
| COc1ncc(-c2ccc3c(c2)C[C@@H](NC(=O)c2cc4n(n2)CC(CCOCC2CC2)O4)CO3)cn1 (single isomer, unassigned) [204 (isomer B)] |  |  | 1000 to 3000 | < 1000 |
| Cn1ccc(-c2ccc3c(c2)C[C@@H](NC(=O)c2cc4n(n2)CC(CCOC(F)(F)F)O4)CO3)n1 (single isomer, unassigned) [213 (isomer A)] |  |  | ≥ 3000 | < 1000 |
| O=C(N[C@H]1COc2ccc(COCC(F)(F)F)cc2C1)c1cc2n(n1)CC(COCC(F)(F)F)O2 (single isomer, unassigned) [188 (isomer B)] |  |  | ≥ 3000 | < 1000 |
| O=C(N[C@H]1COc2ccc(C(F)(F)F)cc2C1O)c1cc2n(n1)CC[C@H](COCC1CC1)O2 (single isomer, unassigned; isomer a) [575(isomer A)] |  |  | 1000 to 3000 | < 1000 |
| N#Cc1ccc2c(c1)C[C@@H](NC(=O)c1cc3n(n1)CCC(C#CC(F)(F)F)O3)CO2 (some centres unmarked) [Example 386] |  |  | ≥ 3000 | < 1000 |
| CN1Cc2nc(C(=O)NCCc3cccc(OCC(F)(F)F)c3)cn2CC1c1ccc(C(F)(F)F)cc1 (centres unmarked) [Example 325] |  |  | ≥ 3000 | < 1000 |
| O=C(N[C@H]1COc2ccc(Cl)cc2C1)c1cc2n(n1)CCC(OCC(F)(F)F)CO2 (single isomer, unassigned) [256 (isomer B)] |  |  | 1000 to 3000 | < 1000 |
| CC(C)(C)N1CCn2nc(C(=O)N[C@H]3COc4ccc(Cl)cc4C3)cc2C1 [Example 281] |  |  | ≥ 3000 | < 10000 |
| O=C(N[C@H]1COc2ccc(C(F)(F)F)cc2C1)c1cc2n(n1)CC(CCN1CC(F)(F)C1)O2 (single isomer, unassigned) [236 (isomer B)] |  |  | 1000 to 3000 | < 1000 |
| C[C@@H]1CN(c2cccc(C3CCc4nc(C(=O)N5CCC(c6ccccc6)C5)cn4C3)n2)C[C@H](C)O1 (some centres unmarked) [Example 311] |  |  | ≥ 3000 | < 10000 |
| O=C(N[C@H]1COc2ccc(CC(F)F)cc2C1)c1cc2n(n1)CCC(COC(F)F)O2 (some centres unmarked) [Example 137] | ≥ 3000 | < 1000 |  |  |
| N#Cc1ccc2c(c1)C[C@@H](NC(=O)c1cc3n(n1)CC(COCC1CCC1)O3)CO2 (some centres unmarked) [Example 464] |  |  | ≥ 3000 | < 1000 |
| CCOCC1CCn2nc(C(=O)N[C@H]3COc4ccc(-c5ccccn5)cc4C3)cc2O1 (single isomer, unassigned) [124 (isomer B)] | ≥ 3000 | < 10000 |  |  |
| O=C(N[C@H]1COc2ccc(C(F)(F)F)cc2C1O)c1cc2n(n1)CC(CCCOCC(F)F)O2 (single isomer, unassigned) [610 (isomer A)] |  |  | ≥ 3000 | < 1000 |
| CCCC1CCn2nc(C(=O)N[C@H]3COc4ccc(C#N)cc4C3)cc2O1 (some centres unmarked) [Example 94] | 1000 to 3000 | < 1000 |  |  |
| O=C(N[C@H]1COc2ccccc2C1)c1cc2n(n1)CCC(c1ccccc1)O2 (some centres unmarked) [Example 349] |  |  | 1000 to 3000 | < 1000 |
| O=C(N[C@H]1COc2ccc(CCOC(F)F)cc2C1)c1cc2n(n1)CCC(COC(F)F)O2 (some centres unmarked) [Example 141] |  |  | ≥ 3000 | < 1000 |
| COC1c2cc(C(F)(F)F)ccc2OC[C@@H]1NC(=O)c1cc2n(n1)CCC(COCC(F)(F)F)O2 (single isomer, unassigned) [598 (isomer B)] |  |  | 1000 to 3000 | < 1000 |
| Cn1ccc(-c2c(C(=O)N[C@H]3COc4ccc(C(F)(F)F)cc4C3)nn3c2COCC3)n1 [Example 518] |  |  | 1000 to 3000 | < 1000 |
| COc1cccc(CN2CCn3nc(C(=O)N[C@H]4COc5ccc(Cl)cc5C4)cc3C2)n1 [Example 273] |  |  | ≥ 3000 | < 1000 |
| O=C(N[C@H]1COc2ccc(C(F)F)cc2C1)c1cn2c(n1)CCC(C(F)(F)F)C2 (single isomer, unassigned) [7 (isomer B)] | ≥ 3000 | < 1000 |  |  |
| O=C(N[C@H]1COc2ccccc2C1)c1cn2c(n1)CNC(CCC1CCCC1)C2 (some centres unmarked) [Example 51] | 1000 to 3000 | < 1000 |  |  |
| O=C(N[C@H]1COc2ccc(COCC(F)(F)F)cc2C1)c1cc2n(n1)CC(CCOC(F)F)O2 (some centres unmarked) [Example 214] |  |  | 1000 to 3000 | < 1000 |
| CCCC1CCn2nc(C(=O)N[C@H]3COc4ccc(C#N)cc4C3)cc2O1 (single isomer, unassigned) [95 (isomer B)] | ≥ 3000 |  |  |  |
